Patent publication US9359322B2, “C-linked glucuronide of N-(4-hydroxybenzyl) retinone, analogs thereof, and methods of using the same to inhibit neoplastic cell growth” (Wisconsin Alumni Research Foundation, priority 2005, dated 2016)
Marks after values point to notes of the source that are not given here. One block for each compound: values may come before it.

Assays:
[1] = target: serum retinol-binding protein, RBP (Homo sapiens, UniProt P02753); details: cited from earlier work
[2] = test system: DMBA-induced rat mammary tumor; details: cited from earlier work
[3] = cited from earlier work
[4] = Plasma retinol level (HPLC); assay type: in vivo, rat; details: 2 mmol/kg diet
Experimental: (§1) Baseline measurement of initial tumor sizes, numbers and rat body weights were determined immediately before commencement of treatments, and final measurements were recorded just prior to sacrifice of the animals. Animals were palpated for tumors twice weekly and tumor diameters were measured weekly by a micrometer caliper. Tumor volumes were calculated using the formula [V= 4/3 πr^3] where r is one-half the mean of the sum of the largest diameter and the axis at right angle to it. All tumors as well as lungs, liver, kidney and femur were excised at the end of the experiment for chemical and histopathological evaluation. Blood samples were also taken from each animal for determination of plasma retinol and triglyceride levels.
(§2) Plasma Retinoid Assay. To 500 μL of plasma was added 150 μL of ethanol containing 0.75 μg of internal standard (N-(4-chlorophenyl) retinamide). After mixing 30 sec., 500 μL of ethyl acetate was added followed by 1 min. of mixing and centrifugation for 5 minutes at 1000 rpm in an IEC CL centrifuge. The ethyl acetate layer was removed and syringe filtered through a 0.45 um filter. The ethyl acetate extraction was repeated two more times. The combined extracts were evaporated and the residue reconstituted in 100 μL of methanol. The methanol extract (20 μL) was analyzed by HPLC on a Beckman Instruments model 127 instrument equipped with a model 166 UV detector. Chromatography was done on a precolumn equipped 250×4.6 mm Bechman Ultrasphere ODS column with an 85% methanol/water mobile phase (both containing 10 mM ammonium acetate) flowing at 1 mL/min. Analysis for both internal standard and retinol was conducted at 350 nm and internal standard recoveries and retinol levels were determined by comparison with standard curves, with adjustment of the retinol level based on recovery. Recoveries of internal standard averaged ca. 78%. […] In the 4-HPR treated group, plasma levels of this retinoid were evaluated simultaneously in the same samples as above. In order to avoid interfering substances, plasma treatment retinoid levels for RA and 4-HBRCG were measured using the above system and a step gradient of 75% methanol for 15 min. followed by 85% methanol for 40 minutes.

[5] = target: T1, RARβ (Homo sapiens, UniProt P10826); details: cited from earlier work
T1 sequence (P10826 1-455): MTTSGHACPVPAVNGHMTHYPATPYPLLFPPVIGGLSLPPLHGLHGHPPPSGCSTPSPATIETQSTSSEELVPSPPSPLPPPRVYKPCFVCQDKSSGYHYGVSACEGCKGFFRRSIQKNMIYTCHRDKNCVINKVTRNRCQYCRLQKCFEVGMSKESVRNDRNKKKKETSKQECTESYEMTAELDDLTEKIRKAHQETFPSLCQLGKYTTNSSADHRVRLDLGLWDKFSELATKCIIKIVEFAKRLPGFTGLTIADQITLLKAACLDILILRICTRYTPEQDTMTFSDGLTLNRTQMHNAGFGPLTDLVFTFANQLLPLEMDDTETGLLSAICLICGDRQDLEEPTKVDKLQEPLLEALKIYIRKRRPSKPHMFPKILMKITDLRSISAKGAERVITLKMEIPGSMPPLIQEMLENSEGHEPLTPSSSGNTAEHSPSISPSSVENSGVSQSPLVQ

[6] = Terminal plasma drug levels (plasma retinoid assay, HPLC); assay type: in vivo, rat; details: day 22 of treatment; 2 mmol/kg diet; ± SEM
Experimental: as §2

[7] = target: T2, RARγ (Homo sapiens, UniProt P13631); details: cited from earlier work
T2 sequence (P13631 1-454): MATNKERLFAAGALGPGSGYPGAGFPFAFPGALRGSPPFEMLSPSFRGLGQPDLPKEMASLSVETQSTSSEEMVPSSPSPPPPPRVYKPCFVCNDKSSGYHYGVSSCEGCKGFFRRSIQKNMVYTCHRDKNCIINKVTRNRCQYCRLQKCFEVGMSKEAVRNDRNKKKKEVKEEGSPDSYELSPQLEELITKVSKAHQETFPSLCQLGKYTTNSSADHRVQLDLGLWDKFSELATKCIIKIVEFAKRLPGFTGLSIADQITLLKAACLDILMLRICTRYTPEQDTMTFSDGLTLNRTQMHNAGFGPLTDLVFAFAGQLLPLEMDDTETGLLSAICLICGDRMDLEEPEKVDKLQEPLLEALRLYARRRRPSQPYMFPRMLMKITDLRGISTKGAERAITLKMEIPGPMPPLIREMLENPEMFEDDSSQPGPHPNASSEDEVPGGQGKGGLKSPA

[8] = test system: CYP26A1 mRNA; test: Induction of CYP26A1 mRNA in liver (Q-PCR); assay type: in vivo, rat; details: at sacrifice, retinoid-fed rats, 2 mmol/kg diet; FIG. 4
[9] = test system: CYP26B1 mRNA; details: vitamin A-deficient rats; background; cited from earlier work
[10] = vitamin A-deficient rats; cited from earlier work
[11] = background statement; cited from earlier work
[12] = test system: DMBA-induced rat mammary tumor; test: DMBA-induced rat mammary tumor model, retinoid-containing diets; assay type: in vivo
Experimental: Preliminary evaluation of the mammary tumor chemotherapeutic activity of 4-HBRCG (7) was conducted, and its toxicity profile was also assessed. As previously described,^7, 12 tumor-bearing female rats (treated ca. 50 days earlier with 7,12-dimethylbenz(a)anthracene [DMBA]) were fed the control or retinoid-containing diets (RA (2), 4-HPR (3) or 4-HBRCG (7)) at 2 mmole/kg diet for 22 days.
(§3) Animal Studies: Mammary tumors were induced by intragastric intubation of 50-day old female Sprague-Dawley rats (Harlan Industries, Indianapolis, Ind.) with a single dose of 15 mg DMBA in 1.0 ml of sesame oil per rat. The rats were then maintained on a powdered Teklad 22/5 rodent chow diet (W) 8640 (Harlan Industries, Indianapolis, Ind.), and allowed food and water ad libitum. Four months later, rats which had developed palpable tumors were randomly assigned to the experimental groups (4 rats/group). The retinoid-treated groups were fed diets supplemented with 2 mmol/kg diet of atRA, 4-HPR, or 4-HBRCG, respectively. The retinoids were added to the diet in a vehicle consisting of 25 ml of ethanol: tricaprylin (1:4 v/v) plus 2% (w/v) of α-tocopherol as previously described.^9 This vehicle was also added to the control diet. The additives were blended into the chow diets using a Hobart food mixer. The diets were fed in stainless steel feeders designed with food hoppers. The food was replaced weekly with freshly prepared diets. Food consumption was determined once weekly, and from that the average daily consumption/rat was estimated. These diets were continuously fed for 22 days. Animals were also weighted weekly and monitored for general health status and signs of possible toxicity due to treatment.
as §1

[13] = Plasma triglyceride measurement; assay type: in vivo, rat; details: 2 mmol/kg diet, 22 days; FIG. 2A
Experimental: Plasma Triglyceride Measurement. Bloods were drawn from anesthetized animals in the presence of EDTA as an anticoagulant, and the resulting plasma was used for the measurement of plasma “true” triglyceride levels using a kit from Sigma-Aldrich (Saint Louis, Mo.). Briefly, the total plasma triglyceride and glycerol concentrations were determined, and the glycerol component was subtracted from the total plasma triglyceride measurement to obtain the “true” serum triglyceride concentration.

[14] = Body weight change during retinoid feeding; assay type: in vivo, rat; details: relative to baseline body weight over 22 days; 2 mmol/kg diet
Experimental: as §3, §1

[15] = test system: CYP26B1 mRNA; test: Induction of CYP26B1 mRNA in lung (Q-PCR); assay type: in vivo, rat; details: at sacrifice, retinoid-fed rats, 2 mmol/kg diet; data not shown
[16] = Femur bone mineral content; assay type: in vivo, rat; details: end of feeding study; FIG. 2B
From the text: Bone Mineral Content. The femur was disarticulated from the leg, and the adhering soft tissue was removed by dissection. Femurs were scanned using the Lunar PIXImus 2 system (Model X2608, General Electric using the LUNAR software version 1.45), and control measurements were made using the small animal quality control phantom. Femurs were scanned 5 times each with re-positioning at each measure. The average value of the bone mineral content (BMC) in grams for each animal is reported as one independent measure.

[17] = number of individual tumors, 2 mmol/kg diet, 22 days

SMILES: CC1=C(/C=C/C(C)=C/C=C/C(C)=C/C(=O)Cc2ccc(O)cc2)C(C)(C)CCC1 [4-HBR, 4-hydroxybenzyl retinone]
- Binding to RBP [1]: equivalent binding to RBP
- Chemotherapeutic activity in DMBA-induced rat mammary tumor model [2]: equiactive chemotherapeutics
- Effect on blood retinol levels [3]: does not lower blood retinol levels

- Effect on blood retinol [4]: the same amount of 4-HPR did
- Plasma retinol ([4]; day 22 of treatment, mean ± SEM): 0.21 ± 0.05 ^e μg/ml
- Plasma retinoid concentration (terminal plasma drug level) [6]: 0.67 ± 0.07 µg/mL
- Effect on serum triglyceride concentration [13]: small but insignificant increase
- Effect on femur bone mineral content vs control [16]: showed no such effect
SMILES: CC1=C(/C=C/C(C)=C/C=C/C(C)=C/C(=O)Nc2ccc(O)cc2)C(C)(C)CCC1 [4-HPR (3), N-(4-hydroxyphenyl) retinamide]
- Times less potent than atRA in competing for [3H]atRA binding to RARβ [5]: ~3000 times
- Times less able than atRA to compete for binding to RARγ [7]: 2500 times
- Induction of CYP26A1 mRNA in liver [8]: 37 fold above control
- Induction of CYP26B1 mRNA expression in lungs [9]: induces CYP26B1 mRNA expression in a RA-like manner
- Hydrolysis to liberate retinoic acid [10]: is hydrolyzed to liberate retinoic acid
- Teratogenicity relative to RA [11]: 100 times less teratogenic than RA
- % Change in tumor volume from baseline ([12]; 2 mmol/kg diet for 22 days): −33 ^d %
- Final tumor volume ([12]; 2 mmol/kg diet for 22 days, mean ± SEM): 0.08 ± 0.02 cm^3
- Initial tumor volumes ([12]; baseline before treatment, mean ± SEM): 0.12 ± 0.03 cm^3
- Complete regression (tumors that totally disappeared) [12, 17]: 1
- No effect [12, 17]: 3
- Partial regression (tumors with 25-75% decrease in volume) [12, 17]: 15
- New tumors ([12]; number of tumors, 2 mmol/kg diet, 22 days): 0
- Binding to RBP [1]: equivalent binding to RBP
- Chemotherapeutic activity in DMBA-induced rat mammary tumor model [2]: equiactive chemotherapeutics
- % Weight change [14]: +3%
- Induction of CYP26B1 mRNA in lung [15]: 20 fold above control
